How the values were obtained:
Type in all cases: cell-based
[1] = system: MCF7 cells (breast cancer cell line); assay: Lysosome staining with LysoTracker; details: presence vs absence of Doxorubicin
Text: (§1) FIG. 3: Graph of staining signals obtained for HCT116 and MCF7 cells stained with LysoTracker® both in the presence and absence of Doxorubicin.

[2] = system: HCT116 cells (colorectal carcinoma cell line); assay: Lysosome staining with LysoTracker; details: presence vs absence of Doxorubicin
Text: as §1

[3] = system: MCF7 cells (breast cancer cell line); assay: Senescence β-galactosidase staining, light microscopy; details: 250 nM Doxorubicin for 24 hours
Description: FIG. 2: Light microscope pictures of β-gal-stained HCT116 and MCF7 cells with and with out 250 nM Doxorubicin treatment.
To stimulate HCT116 (colorectal carcinoma cell line) cells and MCF7 (breast cancer cell line) cells for senescence β-galactosidase staining, the cells were treated with 250nM Doxorubicin for 24 hours. Doxorubicin interacts with DNA by intercalation and inhibits the progression of the enzyme topoisonerase II.

[4] = system: MCF7 cells (breast cancer cell line); assay: FACS analysis of labelling of senescent (Doxorubicin-treated) cells; details: with vs without 250 nM Doxorubicin, labeled with 40 ng/ml compound, 20 min, 37° C., 5% CO2
Description: (§2) FIG. 1: FACS-analysis data of the compound of Example 5 in HCT116 cells (colorectal carcinoma cell line) and MCF7 cells (breast cancer cell line) with and with out 250 nM Doxorubicin treatment.
(§3) MCF7 cells with (senescence +) and without 250 nM Doxorubicin treatment. The cells were incubated 20 min in 37° C. with 5% CO2.
(§4) To show the capability of the compounds of the invention to mark and visualise senescent cells, HCT116 cells (colorectal carcinoma cell line) and MCF7 cells (breast cancer cell line) were incubated 20 min at 37° C. with 5% CO2 in the presence and absence of Doxorubicin. The cells were then labeled with 40 ng/ml of the compound of Example 5.
(§5) To show the capability of the compounds of the invention to mark and visualise senescent cells, HCT116 cells (colorectal carcinoma cell line) and MCF7 cells (breast cancer cell line) were incubated 20 min in 37° C. with 5% CO2. The cells were then labeled with 40 ng/ml of the compound of Example 2.

[5] = system: HCT116 cells (colorectal carcinoma cell line); assay: as above; details: with vs without 250 nM Doxorubicin, labeled with 40 ng/ml compound, 20 min, 37° C., 5% CO2
Description: as §2, §3, §4, §5

In the case of COc1cccc2c1C(=O)c1c(O)c3c(c(O)c1C2=O)C[C@@](O)(C(=O)CO)C[C@@H]3O[C@H]1C[C@H](N)[C@H](O)[C@H](C)O1 [Doxorubicin], the “lysosome staining signal compared to untreated cells” value [1] is reported as “enhanced positive lysosome staining”, the “lysosome staining signal compared to untreated cells” value [2] is reported as “enhanced positive lysosome staining” and the “β-gal expression (senescence staining)” value [3] is reported as “strong expression of β-gal”.
In the case of CN(C)c1cccc2c(S(=O)(=O)NCCNc3ccnc4cc(Cl)ccc34)cccc12 [Example 2], the “enrichment of the labeled compound in Doxorubicin-treated (senescent) cells (FACS)” value (shortened to “enrichment of the labeled compound”) [4] is reported as “enhanced enrichment” and the “enrichment of the labeled compound” value [5] is reported as “enhanced enrichment”.
With CCN(CC)c1ccc2nc3c4cc(OCCCS[C@H]5O[C@@H](C)[C@@H](O)[C@@H](O)[C@@H]5O)ccc4c(=O)cc-3oc2c1 [Example 5] the “enrichment of the labeled compound” value [4] was “enhanced enrichment”.
